Structures are written as SMILES. Where two headings read alike, the source gives them in different places.

Common to all, as to format: binding
Assay [1] addresses T1, HeLa cell extract proteins (Homo sapiens, UniProt Q9UPN7).
T1 construct: endogenous in cells; host or cells: HeLa cell extract
T1 sequence (Q9UPN7 1-881): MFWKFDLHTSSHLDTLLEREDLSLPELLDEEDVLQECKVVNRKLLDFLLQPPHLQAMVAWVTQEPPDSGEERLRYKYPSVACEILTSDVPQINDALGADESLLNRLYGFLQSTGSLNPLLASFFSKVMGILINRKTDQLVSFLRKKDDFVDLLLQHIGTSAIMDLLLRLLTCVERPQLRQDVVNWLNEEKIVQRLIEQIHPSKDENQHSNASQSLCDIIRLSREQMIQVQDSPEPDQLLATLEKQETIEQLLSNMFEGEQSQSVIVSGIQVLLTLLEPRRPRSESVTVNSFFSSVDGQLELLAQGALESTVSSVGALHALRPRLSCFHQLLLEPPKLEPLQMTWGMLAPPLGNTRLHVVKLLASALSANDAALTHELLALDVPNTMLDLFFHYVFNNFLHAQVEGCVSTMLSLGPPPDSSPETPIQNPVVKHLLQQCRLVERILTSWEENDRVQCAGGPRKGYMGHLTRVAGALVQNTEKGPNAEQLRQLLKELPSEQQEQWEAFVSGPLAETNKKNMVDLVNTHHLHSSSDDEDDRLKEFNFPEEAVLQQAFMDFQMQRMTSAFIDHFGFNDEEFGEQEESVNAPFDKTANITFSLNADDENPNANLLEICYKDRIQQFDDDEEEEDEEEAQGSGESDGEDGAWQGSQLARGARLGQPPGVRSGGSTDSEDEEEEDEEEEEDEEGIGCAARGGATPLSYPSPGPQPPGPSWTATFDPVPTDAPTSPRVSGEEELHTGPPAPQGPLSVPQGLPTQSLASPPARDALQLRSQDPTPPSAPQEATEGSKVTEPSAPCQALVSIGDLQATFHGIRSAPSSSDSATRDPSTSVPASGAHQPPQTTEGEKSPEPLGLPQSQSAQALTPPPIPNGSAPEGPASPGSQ

The target of assay [2] is T2, HeLa cell extract proteins (Homo sapiens, UniProt O15111).
T2 construct: endogenous in cells; host or cells: HeLa cell extract
T2 sequence (O15111 1-745): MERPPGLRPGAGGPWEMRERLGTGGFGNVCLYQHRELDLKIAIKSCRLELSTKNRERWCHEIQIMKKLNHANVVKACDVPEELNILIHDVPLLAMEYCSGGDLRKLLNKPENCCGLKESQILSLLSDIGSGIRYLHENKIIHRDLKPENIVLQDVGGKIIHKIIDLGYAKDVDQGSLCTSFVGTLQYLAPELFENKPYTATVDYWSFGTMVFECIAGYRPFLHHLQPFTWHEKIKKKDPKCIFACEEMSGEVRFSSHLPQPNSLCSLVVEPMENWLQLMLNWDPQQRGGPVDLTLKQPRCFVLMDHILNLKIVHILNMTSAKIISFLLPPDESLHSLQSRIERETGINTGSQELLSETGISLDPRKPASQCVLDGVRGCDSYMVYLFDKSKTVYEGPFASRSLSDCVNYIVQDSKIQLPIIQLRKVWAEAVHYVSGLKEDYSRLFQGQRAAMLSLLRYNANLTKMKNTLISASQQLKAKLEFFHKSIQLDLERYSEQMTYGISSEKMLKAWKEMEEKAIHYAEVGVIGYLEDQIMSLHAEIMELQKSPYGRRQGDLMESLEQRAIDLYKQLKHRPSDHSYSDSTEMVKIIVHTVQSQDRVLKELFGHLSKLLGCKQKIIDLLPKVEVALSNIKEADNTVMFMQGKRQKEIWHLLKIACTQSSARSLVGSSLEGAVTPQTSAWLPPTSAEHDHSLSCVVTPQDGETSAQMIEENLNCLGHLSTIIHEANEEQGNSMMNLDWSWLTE
Particulars: HeLa; protein CHUK.

Assay [3] addresses T3, HeLa cell extract proteins (Homo sapiens, UniProt P04004).
T3 construct: endogenous in cells; host or cells: HeLa cell extract
T3 sequence (P04004 20-478): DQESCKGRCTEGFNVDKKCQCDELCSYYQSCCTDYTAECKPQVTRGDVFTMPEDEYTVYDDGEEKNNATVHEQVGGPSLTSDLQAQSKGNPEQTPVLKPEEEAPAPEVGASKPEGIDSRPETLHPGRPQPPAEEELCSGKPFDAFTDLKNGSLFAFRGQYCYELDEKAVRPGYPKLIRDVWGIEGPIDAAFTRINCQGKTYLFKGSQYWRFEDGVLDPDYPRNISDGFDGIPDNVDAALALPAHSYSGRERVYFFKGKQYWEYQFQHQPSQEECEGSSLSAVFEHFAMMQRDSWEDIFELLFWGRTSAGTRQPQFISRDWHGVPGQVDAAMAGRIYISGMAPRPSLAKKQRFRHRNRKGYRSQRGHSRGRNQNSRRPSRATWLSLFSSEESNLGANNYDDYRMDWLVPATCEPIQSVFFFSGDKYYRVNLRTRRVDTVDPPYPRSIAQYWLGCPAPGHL
Particulars: HeLa; protein VTN.

For assay [4], the target named is T4, HeLa cell extract proteins (Homo sapiens, UniProt P35237).
T4 construct: endogenous in cells; host or cells: HeLa cell extract
T4 sequence (P35237 1-376): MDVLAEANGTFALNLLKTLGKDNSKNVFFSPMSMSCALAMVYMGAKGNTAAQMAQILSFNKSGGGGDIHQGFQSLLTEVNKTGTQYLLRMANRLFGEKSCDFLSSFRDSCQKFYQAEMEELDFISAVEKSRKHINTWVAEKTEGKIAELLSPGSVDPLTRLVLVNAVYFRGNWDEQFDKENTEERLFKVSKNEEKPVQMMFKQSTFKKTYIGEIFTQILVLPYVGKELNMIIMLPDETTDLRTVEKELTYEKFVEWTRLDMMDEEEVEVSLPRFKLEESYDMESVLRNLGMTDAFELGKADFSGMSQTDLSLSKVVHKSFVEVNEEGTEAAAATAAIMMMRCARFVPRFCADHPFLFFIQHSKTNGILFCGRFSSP
Particulars: protein SERPINB6; HeLa.

Assay [5] has as its target T5, HeLa cell extract proteins (Homo sapiens, UniProt Q8TDH9).
T5 construct: endogenous in cells; host or cells: HeLa cell extract
T5 sequence (Q8TDH9 1-187): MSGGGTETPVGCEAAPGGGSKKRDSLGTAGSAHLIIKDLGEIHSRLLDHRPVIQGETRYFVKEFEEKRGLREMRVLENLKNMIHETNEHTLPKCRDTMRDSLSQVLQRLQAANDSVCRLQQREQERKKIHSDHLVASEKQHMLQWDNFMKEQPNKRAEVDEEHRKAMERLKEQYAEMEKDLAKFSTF
Particulars: protein MUTED; HeLa.

Setting [6] is: HeLa, protein SAPS1 (SAPS1 PROTEIN).

On to `Nc1nc2c(c(=O)[nH]1)N(C=O)C(CNc1ccc(C(=O)N[C@@H](CCC(=O)O)C(=O)O)cc1)CN2` (stereo partly shown) [LEU, leucovorin], for which the “fold changes relative to vehicle control” value in assay [1] (setting [6]) is listed as 1.01.

Turning to `Nc1nc2[nH]cc(CCc3ccc(C(=O)N[C@@H](CCC(=O)O)C(=O)O)cc3)c2c(=O)[nH]1` [PTX, pemetrexed], the “fold changes relative to vehicle control” value in assay [1] was 1.49.

`CCCCCCOc1ccc(Cc2cnc(N)nc2N)cc1` [compound 1]: the “fold changes relative to vehicle control” value in assay [2] was 0.98; in assay [3], 1; in assay [4], 1.14; in assay [5], 1.09.

Consider `CCCCCCOc1cccc(Cc2cnc(N)nc2N)c1` [compound 2], for which the “fold changes relative to vehicle control” value in assay [2] was determined as 1.04; in assay [3] it was 0.91; in assay [4] it was 1.61; in assay [5], 1.65.

On to `Nc1nc2cccc(-c3ccccc3)c2n1Cc1ccc(Cl)c(Cl)c1` [compound 3], for which the “fold changes relative to vehicle control” value in assay [2] came to 0.9; in assay [3] it was 1.05; in assay [4] it was 0.92; in assay [5], 0.99.

With `NCCOCCOCC(=O)Nc1nc2ncc(CNc3ccc(C(=O)NC(CCC(=O)O)C(=O)O)cc3)nc2c(=O)[nH]1` (stereo not shown) [compound 6], the “fold changes relative to vehicle control” value in assay [1] (setting [6]) worked out at 1.29.

For `NCCCNc1ccc(C(=O)NC(CCC(=O)O)C(=O)O)cc1` (stereo not shown) [compound 7], the “fold changes relative to vehicle control” value in assay [1] (setting [6]) came to 1.32.

(Values after article PMC6199744, “Development of Chemical Proteomics for the Folateome and Analysis of the Kinetoplastid Folateome” (ACS Infectious Diseases, 2018).)
